Here are results for 10 compounds from US11612661B2 (priority 2019, dated 2023).

One test concerns the target rat α9α10 nAChR (Rattus norvegicus, UniProt P43144+Q9JLB5). The test is described as follows: cell-based. The class given is cell-based. The conditions noted are these: for IC50: α9α10 nAChR IC50 (nM) Rat.
The target in a further test is human α9α10 nAChR (Homo sapiens, UniProt Q9GZZ6+Q9UGM1). The test is described as follows: cell-based. The class given is cell-based.

Numbered stars: 1 amine (or outer) side, 2 acyl side, 3 side chain; on linkers, the order of the positions; unused ones are H or OH. Bridge positions count the residues as written; N and C are the ends. Square brackets hold non-standard residues; d marks the D form. Triazole bridges read from a SMILES are 1,4-linked. Peptide text beside a SMILES is read from it. Gly(αS-SH) = O=C([C@@H](N[*:1])S[*:3])[*:2]; Tyr(3-I) = N[C@@H](Cc1ccc(O)c(I)c1)C(=O)O; Orn(N3) = [N-]=[N+]=NCCC[C@H](N)C(=O)O; NMeY = CN[C@@H](Cc1ccc(O)cc1)C(=O)O; NMeR = CN[C@@H](CCCNC(=N)N)C(=O)O; Cit = NC(=O)NCCC[C@H](N)C(=O)O; Hpra = C#CCC[C@H](N)C(=O)O; Pra = C#CC[C@H](N)C(=O)O; Sar = CNCC(=O)O

For orientation: IC50 means the concentration that inhibits the measured activity by half. Higher therefore signals lower potency.

rat α9α10 nAChR, sequence (P43144 26-479 limits assumed): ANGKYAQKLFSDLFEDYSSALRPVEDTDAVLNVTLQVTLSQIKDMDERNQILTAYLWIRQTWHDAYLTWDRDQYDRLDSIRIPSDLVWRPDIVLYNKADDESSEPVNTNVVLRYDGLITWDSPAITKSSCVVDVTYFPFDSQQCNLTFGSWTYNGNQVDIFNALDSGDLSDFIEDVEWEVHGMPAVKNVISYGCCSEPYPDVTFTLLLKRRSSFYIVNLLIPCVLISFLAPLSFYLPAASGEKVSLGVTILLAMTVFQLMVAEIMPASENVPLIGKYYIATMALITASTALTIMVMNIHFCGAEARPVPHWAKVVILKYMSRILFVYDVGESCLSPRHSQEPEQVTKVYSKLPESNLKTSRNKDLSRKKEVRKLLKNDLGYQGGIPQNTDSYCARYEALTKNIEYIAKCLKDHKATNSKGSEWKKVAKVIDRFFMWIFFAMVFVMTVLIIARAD
rat α9α10 nAChR, sequence (Q9JLB5 25-447 limits assumed): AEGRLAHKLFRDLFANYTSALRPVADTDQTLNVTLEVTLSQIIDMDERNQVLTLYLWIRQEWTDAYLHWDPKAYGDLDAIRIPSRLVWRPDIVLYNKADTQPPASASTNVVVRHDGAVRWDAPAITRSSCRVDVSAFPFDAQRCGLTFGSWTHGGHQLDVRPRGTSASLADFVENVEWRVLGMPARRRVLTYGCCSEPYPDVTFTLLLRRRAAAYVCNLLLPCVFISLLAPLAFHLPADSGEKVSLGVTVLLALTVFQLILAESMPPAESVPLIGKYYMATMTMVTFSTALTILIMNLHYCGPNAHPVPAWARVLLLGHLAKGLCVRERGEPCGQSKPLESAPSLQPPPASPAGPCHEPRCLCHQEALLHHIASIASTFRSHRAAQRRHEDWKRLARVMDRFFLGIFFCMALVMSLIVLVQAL
human α9α10 nAChR, sequence (Q9UGM1 26-479 limits assumed): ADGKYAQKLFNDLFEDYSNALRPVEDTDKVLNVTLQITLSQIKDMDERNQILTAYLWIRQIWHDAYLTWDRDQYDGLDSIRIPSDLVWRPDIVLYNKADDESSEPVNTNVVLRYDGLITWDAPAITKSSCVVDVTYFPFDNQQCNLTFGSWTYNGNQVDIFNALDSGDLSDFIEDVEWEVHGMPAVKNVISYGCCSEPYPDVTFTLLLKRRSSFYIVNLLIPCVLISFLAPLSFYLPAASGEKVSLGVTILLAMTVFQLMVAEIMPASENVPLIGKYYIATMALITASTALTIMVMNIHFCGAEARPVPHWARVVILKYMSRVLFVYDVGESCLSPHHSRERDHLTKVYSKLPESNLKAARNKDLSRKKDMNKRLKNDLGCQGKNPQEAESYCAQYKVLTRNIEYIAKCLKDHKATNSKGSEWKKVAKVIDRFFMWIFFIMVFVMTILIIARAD
human α9α10 nAChR, sequence (Q9GZZ6 25-450 limits assumed): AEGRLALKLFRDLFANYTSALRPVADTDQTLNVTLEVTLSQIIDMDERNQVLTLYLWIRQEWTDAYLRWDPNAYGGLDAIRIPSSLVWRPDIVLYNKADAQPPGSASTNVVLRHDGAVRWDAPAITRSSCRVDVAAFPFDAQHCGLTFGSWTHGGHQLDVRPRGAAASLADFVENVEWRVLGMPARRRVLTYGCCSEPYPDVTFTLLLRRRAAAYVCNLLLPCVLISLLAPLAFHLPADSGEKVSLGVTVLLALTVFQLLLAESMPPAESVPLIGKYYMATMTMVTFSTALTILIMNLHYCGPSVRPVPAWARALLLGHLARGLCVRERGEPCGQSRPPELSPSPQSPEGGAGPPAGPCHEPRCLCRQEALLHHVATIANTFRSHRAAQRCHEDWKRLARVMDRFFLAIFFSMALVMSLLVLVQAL

Turning to `C[C@@H](O)[C@@H]1NC(=O)[C@@H]2Cc3cn(nn3)CCC[C@@H](C(=O)N(C)[C@@H](CCCNC(=N)N)C(=O)O)NC(=O)[C@H](CCC(N)=O)NC(=O)[C@H](Cc3c[nH]c4ccccc34)NC(=O)[C@H](CCCNC(N)=O)NC(=O)[C@H](CSSC[C@H](NC(=O)CN)C(=O)N2)NC(=O)[C@H](CCCNC(=N)N)NC(=O)[C@@H]2CCCN2C(=O)[C@H](CC(=O)O)NC1=O` [Iv, L-arginine, glycyl-L-cysteinyl-L-alanyl-L-threonyl-L-α-aspartyl-L-prolyl-L-arginyl-L-cysteinyl-N5-(aminocarbonyl)-L-ornithyl-L-tryptophyl-L-glutaminyl-L-norvalyl-N-methyl-cyclic (2→8)-disulfide-cyclic 3^3,12^5-(1H-1,2,3-triazole-4,1-diyl)] (H-GC[Pra]TDPRC[Cit]WQ[Orn(N3)][NMeR]-OH; disulfide 2-8; triazole 3-12), the IC50 against rat α9α10 nAChR was under 30 nM; against human α9α10 nAChR it was about 100 nM.
As for `C[C@@H](O)[C@@H]1NC(=O)[C@@H]2Cn3cc(nn3)CCC[C@@H](C(=O)N[C@@H](Cc3ccc(O)cc3)C(=O)O)NC(=O)[C@H](CCC(N)=O)NC(=O)[C@H](Cc3c[nH]c4ccccc34)NC(=O)[C@H](CCCNC(N)=O)NC(=O)[C@H](CSSC[C@H](NC(=O)CN)C(=O)N2)NC(=O)[C@H](CCCNC(=N)N)NC(=O)[C@@H]2CCCN2C(=O)[C@H](CC(=O)O)NC1=O` [Ik, L-tyrosine, glycyl-L-cysteinyl-L-alanyl-L-threonyl-L-α-aspartyl-L-prolyl-L-arginyl-L-cysteinyl-N5-(aminocarbonyl)-L-ornithyl-L-tryptophyl-L-glutaminyl-L-(2S)-2-aminopentanoyl-cyclic (2→8)-disulfide-cyclic 3^3,12^5-(1H-1,2,3-triazole-1,4-diyl)], the IC50 at rat α9α10 nAChR is 9.5 ± 1.3 nM; at human α9α10 nAChR, 16.6 ± 1.1 nM.
Turning to `C[C@@H](O)[C@@H]1NC(=O)[C@@H]2Cc3cn(nn3)CCC[C@@H](C(=O)N[C@@H](Cc3ccc(O)cc3)C(=O)N(C)CC(=O)O)NC(=O)[C@H](CCC(N)=O)NC(=O)[C@H](Cc3c[nH]c4ccccc34)NC(=O)[C@H](CCCNC(N)=O)NC(=O)[C@H](CSSC[C@H](NC(=O)CN)C(=O)N2)NC(=O)[C@H](CCCNC(=N)N)NC(=O)[C@@H]2CCCN2C(=O)[C@H](CC(=O)O)NC1=O` [In, glycine, glycyl-L-cysteinyl-L-alanyl-L-threonyl-L-α-aspartyl-L-prolyl-L-arginyl-L-cysteinyl-N5-(aminocarbonyl)-L-ornithyl-L-tryptophyl-L-glutaminyl-L-norvalyl-L-tyrosyl-N-methyl-cyclic (2→8)-disulfide-cyclic 3^3,12^5-(1H-1,2,3-triazole-4,1-diyl)] (H-GC[Pra]TDPRC[Cit]WQ[Orn(N3)]Y[Sar]-OH; disulfide 2-8; triazole 3-12), the IC50 at rat α9α10 nAChR is at most 10 nM; at human α9α10 nAChR, 37 ± 15 nM.
Regarding `C[C@@H](O)[C@@H]1NC(=O)[C@@H]2Cc3cn(nn3)CCC[C@@H](C(=O)N(C)[C@@H](Cc3ccc(O)cc3)C(=O)O)NC(=O)[C@H](CCC(N)=O)NC(=O)[C@H](Cc3c[nH]c4ccccc34)NC(=O)[C@H](CCCNC(N)=O)NC(=O)[C@H](CSSC[C@H](NC(=O)CN)C(=O)N2)NC(=O)[C@H](CCCNC(=N)N)NC(=O)[C@@H]2CCCN2C(=O)[C@H](CC(=O)O)NC1=O` [Ir, L-tyrosine, glycyl-L-cysteinyl-L-alanyl-L-threonyl-L-α-aspartyl-L-prolyl-L-arginyl-L-cysteinyl-N5-(aminocarbonyl)-L-ornithyl-L-tryptophyl-L-glutaminyl-L-norvalyl-N-methyl-cyclic (2→8)-disulfide-cyclic 3^3,12^5-(1H-1,2,3-triazole-4,1-diyl)] (H-GC[Pra]TDPRC[Cit]WQ[Orn(N3)][NMeY]-OH; disulfide 2-8; triazole 3-12), the results for the IC50 on rat α9α10 nAChR and against human α9α10 nAChR were 31 ± 0.7 nM and about 100 nM, respectively.
`C[C@@H](O)[C@@H]1NC(=O)[C@H]2NC(=O)[C@@H](NC(=O)CN)CCCn3cc(nn3)C[C@H](NC(=O)[C@H](CCCNC(=N)N)NC(=O)[C@@H]3CCCN3C(=O)[C@H](CC(=O)O)NC1=O)C(=O)N[C@@H](CCCNC(N)=O)C(=O)N[C@@H](Cc1ccc(O)c(I)c1)C(=O)N[C@@H](CCC(N)=O)C(=O)N[C@H](C(=O)N[C@@H](Cc1ccc(O)cc1)C(N)=O)CSS2` [Id, L-tyrosinamide, glycyl-L-norvalyl-L-cysteinyl-L-threonyl-L-α-aspartyl-L-prolyl-L-arginyl-L-alanyl-N5-(aminocarbonyl)-L-ornithyl-L-3-iodotyrosyl-L-glutaminyl-L-cysteinyl-cyclic 2^5,8^3-(1H-1,2,3-triazole-1,4-diyl)-cyclic-(3→12)-disulfide] (H-G[Orn(N3)][Gly(αS-SH)]TDPR[Pra][Cit][Tyr(3-I)]QCY-NH2; triazole 2-8; disulfide 3-12): the IC50 at rat α9α10 nAChR and against human α9α10 nAChR was at least 1000 nM throughout.
Regarding `C[C@@H](O)[C@@H]1NC(=O)[C@@H]2Cc3cn(nn3)CCC[C@@H](C(=O)N[C@@H](Cc3ccc(O)cc3)C(=O)O)NC(=O)[C@H](CCC(N)=O)NC(=O)[C@H](Cc3ccc(O)c(I)c3)NC(=O)[C@H](CCCNC(N)=O)NC(=O)[C@H](CSSC[C@H](NC(=O)CN)C(=O)N2)NC(=O)[C@H](CCCNC(=N)N)NC(=O)[C@@H]2CCCN2C(=O)[C@H](CC(=O)O)NC1=O` [Ib, L-tyrosine, glycyl-L-cysteinyl-L-alanyl-L-threonyl-L-α-aspartyl-L-prolyl-L-arginyl-L-cysteinyl-N5-(aminocarbonyl)-L-ornithyl-L-3-iodotyrosyl-L-glutaminyl-L-norvalyl-cyclic (2→8)-disulfide-cyclic 3^3,12^5-(1H-1,2,3-triazole-4,1-diyl)] (H-GC[Pra]TDPRC[Cit][Tyr(3-I)]Q[Orn(N3)]Y-OH; disulfide 2-8; triazole 3-12), the IC50 worked out at 7 nM against rat α9α10 nAChR and 37 ± 1.3 nM on human α9α10 nAChR.
The matching figures for `C[C@@H](O)[C@@H]1NC(=O)[C@@H]2CCC(=O)NCCCC[C@@H](C(=O)N[C@@H](Cc3ccc(O)cc3)C(N)=O)NC(=O)[C@H](CCC(N)=O)NC(=O)[C@H](Cc3ccc(O)c(I)c3)NC(=O)[C@H](CCCNC(N)=O)NC(=O)[C@H](CSSC[C@H](NC(=O)CN)C(=O)N2)NC(=O)[C@H](CCCNC(=N)N)NC(=O)[C@@H]2CCCN2C(=O)[C@H](CC(=O)O)NC1=O` [Iw, L-tyrosinamide, glycyl-L-cysteinyl-L-glutamyl-L-threonyl-L-α-aspartyl-L-prolyl-L-arginyl-L-cysteinyl-N5-(aminocarbonyl)-L-ornithyl-L-3-iodotyrosyl-L-glutaminyl-L-lysyl-cyclic (2→8)-disulfide-cyclic-(3→12)-lactam] (H-GCETDPRC[Cit][Tyr(3-I)]QKY-NH2; disulfide 2-8; lactam 3-12): 36 ± 9 nM and over 300 nM.
Consider `C[C@@H](O)[C@@H]1NC(=O)[C@H]2NC(=O)[C@@H](NC(=O)CN)Cc3cn(nn3)CCC[C@H](NC(=O)[C@H](CCCNC(=N)N)NC(=O)[C@@H]3CCCN3C(=O)[C@H](CC(=O)O)NC1=O)C(=O)N[C@@H](CCCNC(N)=O)C(=O)N[C@@H](Cc1ccc(O)c(I)c1)C(=O)N[C@@H](CCC(N)=O)C(=O)N[C@H](C(=O)N[C@@H](Cc1ccc(O)cc1)C(N)=O)CSS2` [Ic, L-tyrosinamide, glycyl-L-alanyl-L-cysteinyl-L-threonyl-L-α-aspartyl-L-prolyl-L-arginyl-L-norvalyl-N5-(aminocarbonyl)-L-ornithyl-L-3-iodotyrosyl-L-glutaminyl-L-cysteinyl-cyclic 2^3,8^5-(1H-1,2,3-triazole-4,1-diyl)-cyclic-(3→12)-disulfide] (H-G[Pra][Gly(αS-SH)]TDPR[Orn(N3)][Cit][Tyr(3-I)]QCY-NH2; triazole 2-8; disulfide 3-12), for which the IC50 against rat α9α10 nAChR worked out at 69 ± 8.5 nM; against human α9α10 nAChR, 152 ± 71 nM.
Turning to `C[C@@H](O)[C@@H]1NC(=O)[C@@H]2CCc3cn(nn3)CCC[C@@H](C(=O)N[C@@H](Cc3ccc(O)cc3)C(=O)O)NC(=O)[C@H](CCC(N)=O)NC(=O)[C@H](Cc3c[nH]c4ccccc34)NC(=O)[C@H](CCCNC(N)=O)NC(=O)[C@H](CSSC[C@H](NC(=O)CN)C(=O)N2)NC(=O)[C@H](CCCNC(=N)N)NC(=O)[C@@H]2CCCN2C(=O)[C@H](CC(=O)O)NC1=O` [Ig, L-tyrosine, glycyl-L-cysteinyl-(2S)-2-aminobutanoyl-L-threonyl-L-α-aspartyl-L-prolyl-L-arginyl-L-cysteinyl-N5-(aminocarbonyl)-L-ornithyl-L-tryptophyl-L-glutaminyl-L-norvalyl-cyclic (2→8)-disulfide-cyclic 3^4,12^5-(1H-1,2,3-triazole-4,1-diyl)] (H-GC[Hpra]TDPRC[Cit]WQ[Orn(N3)]Y-OH; disulfide 2-8; triazole 3-12), the figures for the IC50 at rat α9α10 nAChR and at human α9α10 nAChR were 22 ± 1.1 nM and 19 nM, respectively.
With `C[C@@H](O)[C@@H]1NC(=O)[C@@H]2Cc3cn(nn3)CCC[C@@H](C(=O)O)NC(=O)[C@H](CCC(N)=O)NC(=O)[C@H](Cc3c[nH]c4ccccc34)NC(=O)[C@H](CCCNC(N)=O)NC(=O)[C@H](CSSC[C@H](NC(=O)CN)C(=O)N2)NC(=O)[C@H](CCCNC(=N)N)NC(=O)[C@@H]2CCCN2C(=O)[C@H](CC(=O)O)NC1=O` [Iq, L-norvaline, glycyl-L-cysteinyl-L-alanyl-L-threonyl-L-α-aspartyl-L-prolyl-L-arginyl-L-cysteinyl-N5-(aminocarbonyl)-L-ornithyl-L-tryptophyl-L-glutaminyl-cyclic (2→8)-disulfide-cyclic 3^3,12^5-(1H-1,2,3-triazole-4,1-diyl)] (H-GC[Pra]TDPRC[Cit]WQ[Orn(N3)]-OH; disulfide 2-8; triazole 3-12), at rat α9α10 nAChR, the “Loss in activity on the rat channel on deletion of amino acid 13 (1a vs 1q)” value is given as “approximately 10 fold” and the IC50 worked out at 69 ± 2 nM. At human α9α10 nAChR, the IC50 is over 300 nM and the “Loss of activity on the human channel on deletion of amino acid 13 (1a vs 1q)” value was “greater than 100 fold”.
